Reference: patent US20090022803A1, “Oral Formulations For Delivery of Catecholic Butanes Including Ndga Compounds” (priority 2005, published 2009)
Like-named read-outs stand apart in the source and are kept apart here.

Type: physicochemical
Experimental: A 10 mL solution of M4N at a concentration of about 10 mg/mL in 40% BP-β-CD was made as follows. About 10 mL of the 40% HP-β-CD solution were added to a glass beaker containing a stir bar. The beaker was placed on a magnetic plate and the stir bar was set to stir at medium speed. About […] of M4N were slowly added to the 40% HP-β-CD in the center of the beaker with the aid of a spatula. The M4N/40% HP-β-CD mixture was stirred for 2 hr or until all M4N was uniformly suspended without any clumps being present. The M4N/40% HP-β-CD mixture was optionally heated at 80° C. for about 30 min. (or longer if a larger volume of solution was desired, for example, 1 hr at 80° C. for 100 mL of the M4N/HP-β-CD mixture), or longer as needed to ensure complete dissolution of M4N. […] The final M4N/40% HP-β-CD solution was stored at room temperature and was kept protected from light. This process may be scaled up or down to obtain the requisite volume or concentration of M4N. Formulations containing M4N in other cyclodextrin solutions may be similarly made, such as, for example, by substituting HP-β-CD in the process described above with other cyclodextrins. […]
A 10 mL solution of M4N at a concentration of about 10 mg/mL in 50% HP-β-CD/0.5% HPMC was made as follows. About 10 mL of the 50% HP-β-CD/0.5% HPMC solution were added to a glass beaker containing a stir bar. The beaker was placed on a magnetic plate and the stir bar was set to stir at medium speed. About 100 mg of M4N were slowly added to the 50% HP-β-CD/0.5% HPMC in the center of the beaker with the aid of a spatula. The M4N/50% HP-β-CD/0.5% HPMC mixture was stirred for 24 hr or until all M4N was uniformly suspended without any clumps being present. The M4N/50% HP-β-CD/0.5% HPMC mixture was heated at about 90° C. for about 30 min. (or longer if a larger volume of solution was desired, for example, 1 hr at 90° C. for 500 mL of the M4N/50% HP-β-CD/0.5% HPMC mixture), or longer as needed to ensure complete dissolution of M4N. […] The final M4N/50% HP-β-CD/0.5% HPMC solution was stored at room temperature and was kept protected from light.
A 10 mL solution of M4N at a concentration of about 20 mg/mL in 5% EC (w/v) (the “EC formulation”) was made as follows. About 10 mL of 5% EC formulation, made as described above, were added to a glass beaker containing a stir bar. The beaker was placed on a magnetic plate and the stir bar was set to stir at medium speed, and covered with a round Teflon® cover. About 200 mg of M4N were slowly added to the 5% EC formulation in the center of the beaker with the aid of a spatula to prevent M4N from sticking to the beaker wall. The M4N/EC mixture was stirred for 2 hr or until all M4N had dissolved or was uniformly suspended without any clumps being present. The M4N/EC mixture was heated at about 60° C. for about 30 min. (or longer if a larger volume of solution was desired, for example, 1 hr at 60° C. for 500 mL of the M4N/EC mixture), or longer as needed to ensure complete dissolution of M4N. […] The final M4N/EC solution was stored at room temperature and was kept protected from light.
A 10 mL solution of M4N at a concentration of about 50 mg/mL in sesame oil was made as follows. About 10 mL of sesame oil were added to a glass beaker containing a stir bar. The beaker was placed on a magnetic plate and the stir bar was set to stir at medium speed. About 500 mg of M4N were slowly added to the sesame oil in the center of the beaker with the aid of a spatula to prevent M4N from sticking to the beaker wall. The M4N/sesame oil mixture was stirred for about 2 hr or until all M4N had dissolved or was uniformly suspended without any clump being present. The M4N/sesame oil mixture was heated at about 60° C. for about 30 min. (or longer if a larger volume of solution was desired, for example, 1 hr at 60° C. for 500 mL of the M4N/sesame oil mixture), or longer as need to ensure complete dissolution of M4N. […]

COc1ccc(C[C@@H](C)[C@@H](C)Cc2ccc(OC)c(OC)c2)cc1OC [Formulation M4N, meso-1,4-bis(3,4-dimethoxyphenyl)-2,3-dimethylbutane]
Dissolution After Cool-Down (M4N 50 mg/mL in Corn Oil): Y | Dissolution After Cool-Down (M4N 50 mg/mL in Mineral Oil): Y | Dissolution After Cool-Down (M4N 50 mg/mL in Sesame Oil): Y | Dissolution After Cool-Down (M4N 50 mg/mL in Soybean Oil): N | Dissolution After Cool-Down (M4N 52 mg/mL in 40% Peppermint Oil, 40% PEG 400, 20% Glycerol): N | Dissolution After Cool-Down (M4N 59 mg/mL in 45% Peppermint Oil, 45% PEG 400, 10% Glycerol): N | Dissolution After Cool-Down (M4N 60 mg/mL in 0.4% (v/v) Cinnamaldehyde, 5% (w/v) Beeswax, 94.5% (v/v) Olive Oil, cell wraps: Creamy solid): Creamy | Dissolution After Cool-Down (M4N 60 mg/mL in 33% Peppermint Oil, 33% Tween ® 20, 33% PEG 400): Y | Dissolution After Rotation (M4N 60 mg/mL in 50% HP-β-CD, 0.5% CMC): Suspension | Dissolution After Cool-Down (M4N 60 mg/mL in 50% Peppermint Oil, 50% PEG 300): Y | Dissolution After Cool-Down (M4N 60 mg/mL in 50% Peppermint Oil, 50% PEG 400): Y | Dissolution After Cool-Down (M4N 60 mg/mL in 50% Peppermint Oil, 50% Sesame Oil): Y | Dissolution After Cool-Down (M4N 60 mg/mL in 50% Peppermint Oil, 50% Tween ® 20): Y | Dissolution After Cool-Down (M4N 60 mg/mL in 60% Peppermint Oil, 40% PEG 300): Y | Dissolution After Cool-Down (M4N 60 mg/mL in 60% Peppermint Oil, 40% PEG 400): N | Dissolution After Cool-Down (M4N 60 mg/mL in 80% Olive Oil, 20% Soybean Oil): N | Dissolution After Cool-Down (M4N 60 mg/mL in 85% Sesame Oil, 15% Tween ® 20): N | Dissolution After Cool-Down (M4N 60 mg/mL in Corn Oil): Y | Dissolution After Cool-Down (M4N 60 mg/mL in Peppermint Oil): Y | Dissolution After Cool-Down (M4N 100 mg/g in 50% Soybean Oil, 50% Beeswax (w/w), cell wraps: waxy solid): waxy | Dissolution After Rotation (M4N 100 mg/mL in 2.3% HPMC): N | Dissolution After Cool-Down (M4N 100 mg/mL in 5% EC in EtOH): N | Dissolution After Rotation (M4N 100 mg/mL in 5% EC in EtOH): N | Dissolution After Rotation (M4N 100 mg/mL in 15% α-CD): N | Dissolution After Heating at X° C. (M4N 100 mg/mL in 15% α-CD, 90°): N at 90° | Dissolution After Rotation (M4N 100 mg/mL in 30% HP-β-CD): N | Dissolution After Heating at X° C. (M4N 100 mg/mL in 30% HP-β-CD, 90°): N at 90° | Dissolution After Rotation (M4N 100 mg/mL in 40% HP-β-CD): N | Dissolution After Heating at X° C. (M4N 100 mg/mL in 40% HP-β-CD, 80°): N at 80° | Dissolution After Rotation (M4N 100 mg/mL in 50% HP-β-CD): N | Dissolution After Heating at X° C. (M4N 100 mg/mL in 50% HP-β-CD, 90°): N at 90° | Dissolution After Cool-Down (M4N 100 mg/mL in 50% Peppermint Oil, 50% PEG 400): N | Dissolution After Cool-Down (M4N 100 mg/mL in Camillia Oil, cell wraps: Creamy solid): Creamy | Dissolution After Cool-Down (M4N 100 mg/mL in Corn Oil): N | Dissolution After Cool-Down (M4N 100 mg/mL in Eugenol, Beeswax, Olive Oil, 0.5% (v/v) Eugenol, cell wraps: Creamy solid): Creamy | Dissolution After Cool-Down (M4N 100 mg/mL in Mineral Oil): N | Dissolution After Cool-Down (M4N 100 mg/mL in Peppermint Oil): Y | Dissolution After Cool-Down (M4N 125 mg/mL in 50% Peppermint Oil, 50% PEG 300): N | Dissolution After Cool-Down (M4N 125 mg/mL in 50% Peppermint Oil, 50% PEG 400): N | Dissolution After Cool-Down (M4N 125 mg/mL in 50% Peppermint Oil, 50% Tween ® 20): N | Dissolution After Cool-Down (M4N 125 mg/mL in Peppermint Oil): Y | Dissolution After Rotation (M4N 150 mg/g in 84% HP-β-CD, 1% HPMC, Lyophilized): powder | Dissolution After Rotation (M4N 185 mg/g in 81.5% (w/w) HP-β-CD, Lyophilized): powder | Dissolution After Cool-Down (M4N 200 mg/g in 75% Soybean Oil, 25% Beeswax (w/w), cell wraps: waxy solid): waxy | Dissolution After Cool-Down (M4N 200 mg/g in 90% Olive Oil, 10% Beeswax (w/w), cell wraps: waxy solid): waxy | Dissolution After Cool-Down (M4N 200 mg/g in 90% Soybean Oil, 10% Beeswax (w/w), cell wraps: waxy solid): waxy | Dissolution After Cool-Down (M4N 200 mg/g in 95% Olive Oil, 5% Beeswax (w/w), cell wraps: waxy solid): waxy | Dissolution After Cool-Down (M4N 200 mg/g in 95% Soybean Oil, 5% Beeswax (w/w), cell wraps: waxy solid): waxy | Dissolution After Cool-Down (M4N 200 mg/mL in Mineral Oil): N | Dissolution After Cool-Down (PEG 300 100%, M4N 25 mg/mL, after heating at 50° C.): Y | Dissolution After Cool-Down (PEG 400 100%, M4N 25 mg/mL, after heating at 50° C.): Y | Dissolution After Cool-Down (PEG 400 100%, M4N 30 mg/mL, after heating at 50° C.): Y | Dissolution After Cool-Down (PEG 400 100%, M4N 40 mg/mL, after heating at 50° C.): Y | Dissolution After Cool-Down (PEG 400 100%, M4N 50 mg/mL, after heating at 60° C.): Y | Dissolution After Cool-Down (PEG 400 100%, M4N 100 mg/mL, after heating at 60° C.): N | Dissolution After Cool-Down (PEG 400 mono-laurate 100%, M4N 20 mg/mL, after heating at 50° C.): Y | Dissolution After Cool-Down (PEG 400 mono-laurate 100%, M4N 50 mg/mL, after heating at 50° C.): Y | Dissolution After Cool-Down (Propylene Glycol 100% (w/v), M4N 1 mg/mL, after heating at 55° C.): Y | Dissolution After Cool-Down (Propylene Glycol 100% (w/v), M4N 10 mg/mL, after heating at 55° C.): Y | Dissolution After Cool-Down (Propylene Glycol 100% (w/v), M4N 20 mg/mL, after heating at 55° C.): Y
